One compound from patent publication US20150056166A1, “FLAVONE DERIVATIVES AND THEIR USE” (Twincore GmbH, priority 2012, published 2015) can be followed below.

As a reminder, the IC50 is the concentration that inhibits the measured activity by half. A lower IC50 goes with inhibition by little substance. A word on the IC90: it is the point of the concentration-response curve where the effect stands at 90%. Read a high IC90 as a need for much substance.

Each structure is given as a SMILES string.

The subject of test [1] is subgenomic JFH1 luciferase replicon. Description: HCV RNA translation and replication, subgenomic luciferase replicon in Huh7-Lunet/CD81 cells. The class given is cell-based. The note with it: up to a dose of 10 μM, 72 h post transfection. How it is done:
(A) Huh7-Lunet/CD81 cells were transfected with the subgenomic luciferase replicon depicted at the top. Drugs were added 4 h post transfection and the level of HCV RNA translation and RNA replication was quantified by luciferase assays 72 h post transfection. Mean values of three independent experiments each with quadruplicate measurements including the standard deviation are shown. (B) Cells were transfected with the Jc1 chimera depicted above and drugs were added 4 h later. HCV virus release in the presence or absence of given compounds was determined by quantification of intracellular and extracellular core protein levels using a core-specific ELISA. Mean values of three independent experiments with single measurements including the error range are given. (C) Huh7-Lunet/CD81 cells were inoculated with Luc-Jc1 reporter viruses prepared in the absence of drugs. […] Infectivity was determined 72 h later by luciferase assays and compared to DMSO-treated controls. […]
To characterize the antiviral effect of BJ486K, the impact of BJ486K on the steps of HCV RNA translation and replication was assessed. To this end, Huh7-Lunet/CD81 cells were transfected with a subgenomic JFH1 luciferase replicon and RNA replication was monitored 72 h later by luciferase assays. […]
For orientation: Replicon systems follow genome replication, usually without infectious particles.

The subject of another test is Con1/C3-HCV. Description: Infection of primary human hepatocytes, focus-formation assay. The test is classed as cell-based. Particulars: Hepatitis C virus, genotype 1b, Hepatocyte, 72 h. The method, then: FIG. 4: BJ486K is not affected by viral resistance towards a SR-BI-targeting compound, inhibits HCV of different genotypes and prevents infection of primary human hepatocytes Huh7-Lunet/CD81 cells were inoculated with Luc-Jc1 or Luc-Jc1/E2/G451R reporter viruses in the presence of increasing doses of (A) ITX 5061 or (B) BJ486K. Cells were lysed 72 h later. Luciferase activity was determined and is expressed relative to control infections conducted in the presence of DMSO. Mean values of four independent experiments each with quadruplicate measurements including the standard deviation are shown. […] Luciferase activity was determined 72 h later and is expressed relative to infections in the presence of DMSO. […] The inhibition of HCV infection was assessed by focus-formation assay and is expressed as % inhibition relative to DMSO-treated cells. […]
Normal-appearing liver tissue from patients seronegative for HCV, hepatitis B virus, and human immunodeficiency virus (HIV) was obtained from adult patients undergoing partial hepatectomy for the therapy of metastases. […] Three days later, infectivity titers in culture supernatants were determined by focus-formation assay as previously described by (Pene et al., Journal of Viral Hepatitis 2009;16:705-15). […]

The subject of another test is J8 (GT2b). The test can be described thus: Luciferase infection assay, chimeric reporter virus J8/2b/R2a in Huh7-Lunet/CD81 cells. The test is classed as cell-based, HCV. Particulars: Hepatitis C virus, Huh-7, 72 h.
The test system of a further test is H77c (GT1a). The test can be described thus: Luciferase infection assay, chimeric reporter virus H77c/1a/R2a in Huh7-Lunet/CD81 cells. The note with it: Hepatitis C virus, Huh-7, 72 h. The class given is cell-based, HCV.
For the next test, the system named is ED43 (GT4a). Description: Luciferase infection assay, chimeric reporter virus ED43/4a/R2a in Huh7-Lunet/CD81 cells. The class given is cell-based, HCV. The note with it: Hepatitis C virus, Huh-7, 72 h.

For the compound `COc1ccc(-c2cc(=O)c3c(O)c(O)c(OC)cc3o2)cc1` [BJ486K, 5,6-Dihydroxy-7-methoxy-2-(4-methoxy-phenyl)-chromen-4-one], the “luciferase activity (HCV RNA translation and replication)” value in test [1] is given as “not changed”. Moreover, the IC50 in the test with Con1/C3-HCV is ~10 µM; with J8 (GT2b), 4.14 µM; in the test with H77c (GT1a), 2.46 µM; with ED43 (GT4a), 0.74 µM. The results for the 90% effect concentration (IC90) with J8 (GT2b), in the test on H77c (GT1a) and in the test on ED43 (GT4a) were 8.42 µM, 11.6 µM and 1.78 µM, respectively.
